Test [1] addresses T1, Recombinant Human Aromatase (HA) (Homo sapiens, UniProt P11511).
T1 sequence (P11511 1-503): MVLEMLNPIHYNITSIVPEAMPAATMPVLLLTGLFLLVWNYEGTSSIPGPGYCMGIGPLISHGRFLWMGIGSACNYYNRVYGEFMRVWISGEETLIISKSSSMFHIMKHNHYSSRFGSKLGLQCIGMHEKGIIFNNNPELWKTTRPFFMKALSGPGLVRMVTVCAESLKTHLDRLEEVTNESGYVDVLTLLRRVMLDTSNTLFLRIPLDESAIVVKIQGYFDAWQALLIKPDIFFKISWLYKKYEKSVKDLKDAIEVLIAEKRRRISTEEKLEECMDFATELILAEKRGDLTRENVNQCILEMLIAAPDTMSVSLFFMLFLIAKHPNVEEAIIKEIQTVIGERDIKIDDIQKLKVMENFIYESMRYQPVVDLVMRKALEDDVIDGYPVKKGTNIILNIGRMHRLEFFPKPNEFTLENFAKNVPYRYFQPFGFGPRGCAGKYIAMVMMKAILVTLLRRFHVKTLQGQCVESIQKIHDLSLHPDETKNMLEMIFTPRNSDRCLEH
Kind of test: HA inhibition assay (Aromatase Inhibitor Screening Kit, fluorogenic substrate). The test is classed as biochemical. The note with it: for Ki: values inside parenthesis, unit inferred, read-out: HA (Ki), inhibition constant (converted).

The test system of a further test is MCF-7 (ER+) cells. Kind of test: Antiproliferative assay, MCF-7. In kind it is cell-based. The note with it: for IC50: read-out: MCF-7 IC50.
In a further test the test system is MDA-MB-231 (ER-) cells. Kind of test: Antiproliferative assay, MDA-MB-231. The test is classed as cell-based.
[2] abbreviates: tested at 200-0.1 µM, triplicate, read-out: HA IC50.
Where [3] appears, read: Homo sapiens, MCF7, 72 h, 72 h, with 10 µM testosterone undecanoate.
[4] abbreviates: Homo sapiens, MDA-MB-231, 72 h, 72 h; read-out: MDA-MB-231 IC50.
Setting [5] is: Homo sapiens, MDA-MB-231, 72 h, read-out: MDA-MB-231 IC50.
Where [6] appears, read: kinetic experiments at varied substrate concentration.

Like-named read-outs stand apart in the source and are kept apart here.

Regarding `COc1ccc(-c2cc(=O)c3c(OC)c(OC)c(OC)c(OC)c3o2)cc1` [Tangeretin], the “HA inhibitory activity (in words)” value in test [1] was “inactive”. Further, the values for the half-maximal inhibitory concentration (IC50) (in test [1] (setting [2]); with MCF-7 (ER+) cells (setting [3]); in the test with MDA-MB-231 (ER-) cells (setting [4])) were over 100 µM, 30.3 ± 2.1 µM and 45.6 ± 3.8 µM, respectively.

With `O=c1cc(-c2ccc(O)cc2)oc2cc(O)cc(O)c12` [Apigenin], the IC50 in the test on MCF-7 (ER+) cells (Homo sapiens, MCF7, 72 h) was determined as 13.6 ± 3.5 µM; in the test with MDA-MB-231 (ER-) cells (setting [5]) it was 60 ± 1.6 µM.

As for `C[C@@H]1O[C@@H](OC[C@H]2O[C@@H](Oc3c(-c4ccc(O)c(O)c4)oc4cc(O)cc(O)c4c3=O)[C@H](O)[C@@H](O)[C@@H]2O)[C@H](O)[C@H](O)[C@H]1O` [Rutin], the “HA inhibitory activity (in words)” value in test [1] is “inactive”. In addition, the 50% inhibitory concentration (IC50) (in test [1] (setting [2]); with MCF-7 (ER+) cells (setting [3]); with MDA-MB-231 (ER-) cells (setting [4])) was over 100 µM throughout. In the test on MCF-7 (ER+) cells, the “Activity against MCF-7 (in words)” value is “inactive”. Besides, in the test with MDA-MB-231 (ER-) cells, the “Activity against MDA-MB-231 (in words)” value is “inactive”.

In the case of `C=C(C)[C@@H]1CC[C@]2(CO)CC[C@]3(C)[C@H](CC[C@@H]4[C@@]5(C)CC[C@H](O)C(C)(C)[C@@H]5CC[C@]43C)[C@@H]12` [Betulin], in test [1], the “HA inhibitory activity (in words)” value is recorded as “very weak inhibitory activity”, the IC50 was 95.3 µM and the Mode of inhibition result is recorded as “Non-competitive”. For the same molecule, the “Activity against MCF-7 (in words)” value in the test on MCF-7 (ER+) cells was “very weak inhibitory activity”. In addition, in the test with MCF-7 (ER+) cells (Homo sapiens, MCF7, 72 h), the concentration for half-maximal inhibition (IC50) was found to be 67 ± 2.6 µM. For the same molecule, the “Activity against MDA-MB-231 (in words)” value in the test on MDA-MB-231 (ER-) cells is reported as “very weak inhibitory activity”. In addition, the half-maximal inhibitory concentration (IC50) in the test on MDA-MB-231 (ER-) cells (Homo sapiens, MDA-MB-231, 72 h; read-out: MDA-MB-231 IC50) is over 100 µM.

With `COc1ccc2cc3[n+](cc2c1OC)CCc1cc2c(cc1-3)OCO2` [Berberine], the Mode of inhibition entry is on record as “Non-competitive” in test [1] (setting [6]) and “non-competitive inhibition” in test [1] (kinetic experiments at varied substrate concentration, listed as berberine). Besides, the half-maximal inhibitory concentration (IC50) was 21.4 ± 0.9 µM in test [1] (setting [2]), 10.2 ± 2.6 µM with MCF-7 (ER+) cells (setting [3]) and over 100 µM in the test on MDA-MB-231 (ER-) cells (setting [4]). For the same molecule, the inhibition constant Ki in test [1] was 20.1 µM.

As for `CC1=CC(=O)CC(C)(C)[C@@]1(O)/C=C/C(C)=C\C(=O)O` [Abscisic acid], in test [1], the “HA inhibitory activity (in words)” value is “inactive”. In addition, the IC50 in test [1] (setting [2]) was over 100 µM; in the test with MCF-7 (ER+) cells (Homo sapiens, MCF7, 72 h), over 100 µM; in the test on MDA-MB-231 (ER-) cells (setting [5]), over 100 µM. Also, the “Activity against MCF-7 (in words)” value in the test on MCF-7 (ER+) cells is “inactive”. Moreover, the “Activity against MDA-MB-231 (in words)” value in the test on MDA-MB-231 (ER-) cells was “inactive”.

Regarding `Oc1ccc(/C=C/c2cc(O)cc(O)c2)cc1` [Resveratrol], the IC50 was 11 ± 2.2 µM with MCF-7 (ER+) cells (setting [3]) and 38 ± 3.5 µM with MDA-MB-231 (ER-) cells (setting [4]).

For the molecule `CC(C)=CCc1c2c(c3occ(-c4ccc(O)c(O)c4)c(=O)c3c1O)C=CC(C)(C)O2` [Pomiferin], the Mode of inhibition result in test [1] (setting [6]) was “Non-competitive”; in test [1] (kinetic experiments at varied substrate concentration, listed as pomiferin), “non-competitive inhibition”. The half-maximal inhibitory concentration (IC50) in test [1] (setting [2]) amounted to 15.1 ± 0.5 µM; in the test with MCF-7 (ER+) cells (setting [3]), 5.4 ± 2.2 µM; in the test on MDA-MB-231 (ER-) cells (setting [4]), 30.9 ± 3.1 µM. In addition, the Ki in test [1] was 14.8 µM.

For the molecule `N#Cc1ccc(C(c2ccc(C#N)cc2)n2cncn2)cc1` [Letrozole, reference compound], the IC50 with MCF-7 (ER+) cells (setting [3]) stood at 5.6 ± 1.1 µM; with MDA-MB-231 (ER-) cells (setting [4]), 41.3 ± 2.1 µM.

As for `O=c1cc(-c2ccccc2)oc2cc(O)cc(O)c12` [Chrysin], the 50% inhibitory concentration (IC50) in the test on MCF-7 (ER+) cells (setting [3]) worked out at 7.8 ± 2.8 µM; in the test with MDA-MB-231 (ER-) cells (setting [4]), 65 ± 2.3 µM.

As for `Cc1coc2c1C(=O)C(=O)c1c-2ccc2c1CCCC2(C)C` [Tanshinone IIA], in test [1] (setting [6]), the Mode of inhibition result is listed as “Non-competitive”. Also, the 50% inhibitory concentration (IC50) in test [1] (setting [2]) is 42.5 ± 1.2 µM; in the test on MCF-7 (ER+) cells (72 h, with 10 µM testosterone undecanoate) it was 1.4 ± 1.3 µM; with MCF-7 (ER+) cells (setting [3]) it was about 2.1 µM; in the test on MDA-MB-231 (ER-) cells (72 h; read-out: MDA-MB-231 IC50), 3.7 ± 1.7 µM; with MDA-MB-231 (ER-) cells (setting [4]), about 2.1 µM. For the same molecule, the inhibition constant (Ki) in test [1] was 40.9 µM.

For the origin of these results see paper PMC8759730, “Targeting allosteric sites of human aromatase: a comprehensive in-silico and in-vitro workflow to find potential plant-based anti-breast cancer therapeutics” (Journal of Enzyme Inhibition and Medicinal Chemistry, 2021).
